Converted amounts (≈) assume the structure as drawn. Where two headings read alike, the source gives them in different places.
Tests used:
[1] = Thermal gravimetric analysis (thermal stability); type: physicochemical
Description: Thermal stabilities were analyzed using a PerkinElmer Pyris Diamond TG/DTA analyzer. The temperature was increased from room temperature to 600° C. at a heating rate of 10° C. min^−1 under N2 atmosphere. […] The greater thermal stability of (−)-NDI-Δ is attributed to its higher molecular weight and more rigid structure compared to NDI-Ref.

[2] = Solubility in non-aqueous electrolyte solvents; type: physicochemical; details: for solubility in non-aqueous electrolyte solvents (in words): neutral state

thermal stability: temperature up to which stable / at which decomposition starts [1] [°C]	solubility in non-aqueous electrolyte solvents (in words) [2]	thermal stability: temperature up to which stable / at which decomposition starts ([1]; TGA, room temperature to 600° C. at 10° C. min^−1 under N2, one-step decomposition) [°C]	solubility in the electrolyte solvents ([2]; electrolyte solvents) [µg/mL]	SMILES
400	only sparingly soluble			O=C1c2ccc3c4c5ccc(c24)C(=O)N1C1CCCC[C@H]1N1C(=O)c2ccc4c6c(ccc(c26)C1=O)C(=O)N(C4=O)C1CCCC[C@H]1N1C(=O)c2ccc4c6c(ccc(c26)C1=O)C(=O)N(C4=O)C1CCCC[C@H]1N(C3=O)C5=O (single isomer, unassigned; (-)) [(−)-NDI-Δ]
	considerably more soluble	250	~100 (≈ 232 µM)	O=C1c2ccc3c4c(ccc(c24)C(=O)N1C1CCCCC1)C(=O)N(C1CCCCC1)C3=O [NDI-Ref]
	only sparingly soluble			O=C1c2ccc3c4c5ccc(c24)C(=O)N1C1CCCC[C@@H]1N1C(=O)c2ccc4c6c(ccc(c26)C1=O)C(=O)N(C4=O)[C@H]1CCCC[C@@H]1N1C(=O)c2ccc4c6c(ccc(c26)C1=O)C(=O)N(C4=O)C1CCCC[C@@H]1N(C3=O)C5=O (single isomer, unassigned; (+)) [(+)-NDI-Δ]

Source: US10903496B2, “Rigid naphthalenediimide triangle structures” (Northwestern University, priority 2015, dated 2021)
